Assay results from ChEMBL document CHEMBL1127945, “5-Aryl-, butenolide, a new class of antibacterial derived from the N-aryl oxazolidinone DUP 721” (1994).
In brackets after ≈: the same amount, converted by molar mass.

These molecules were tested on Staphylococcus aureus (assay: In vitro antibacterial activity against oxacilline resistant strain Staphylococcus aureus O11CB20).
Format: functional

Point of comparison: `CC(=O)NC[C@H]1CN(c2ccc(C(C)=O)cc2)C(=O)O1` [DUP-721], MIC 1.2 µg/mL (≈ 4.34 µM). Against it:
- CC(=O)NC[C@H]1C=C(c2ccc(C(C)=O)cc2)C(=O)O1 — the same, 1.2 µg/mL (≈ 4.39 µM)

Each molecule was assayed on Escherichia coli (assay: In vitro antibacterial activity against Escherichia coli UC 1894).
Format: functional

`CC(=O)NC[C@@H]1CCN(c2ccc(C(C)=O)cc2)C1` and `CC(=O)NC[C@@H]1CC(=O)N(c2ccc(C(C)=O)cc2)C1` cannot be ordered by MIC: over 40 µg/mL for the first, over 40 µg/mL for the second.

`CC(=O)NC[C@H]1C=C(c2ccc(C(C)=O)cc2)C(=O)O1` and `CC(=O)NC[C@H]1CN(c2ccc(C(C)=O)cc2)C(=O)O1` [DUP-721] cannot be ordered by MIC: over 40 µg/mL for the first, over 40 µg/mL for the second.

The molecules below were run on Staphylococcus aureus (assay: In vitro antibacterial activity against sensitive strain Staphylococcus aureus SG 511).
Format: functional

Point of comparison: `CC(=O)NC[C@H]1C=C(c2ccc(C(C)=O)cc2)C(=O)O1`, MIC 1.2 µg/mL (≈ 4.39 µM). Against it:
- CC(=O)NC[C@@H]1CCN(c2ccc(C(C)=O)cc2)C1 — higher, > 40 µg/mL
- CC(=O)NC[C@@H]1CC(=O)N(c2ccc(C(C)=O)cc2)C1 — higher, > 40 µg/mL
- CC(=O)NC[C@H]1CN(c2ccc(C(C)=O)cc2)C(=O)O1 [DUP-721] — the same, 1.2 µg/mL (≈ 4.34 µM)

What follows are molecules tested on Enterococcus faecalis (assay: In vitro antibacterial activity against vancomycin resistant strain Streptococcus faecalis 02D2DU17).
Format: functional

Point of comparison: `CC(=O)NC[C@H]1C=C(c2ccc(C(C)=O)cc2)C(=O)O1`, MIC 2.5 µg/mL (≈ 9.15 µM). Against it:
- CC(=O)NC[C@@H]1CCN(c2ccc(C(C)=O)cc2)C1 — higher, > 40 µg/mL
- CC(=O)NC[C@@H]1CC(=O)N(c2ccc(C(C)=O)cc2)C1 — higher, > 40 µg/mL
- CC(=O)NC[C@H]1CN(c2ccc(C(C)=O)cc2)C(=O)O1 [DUP-721] — the same, 2.5 µg/mL (≈ 9.05 µM)

These molecules were tested on Staphylococcus epidermidis (assay: In vitro antibacterial activity against oxacilline resistant strain Staphylococcus epidermidis 012GO39).
Format: functional

Point of comparison: `CC(=O)NC[C@H]1CN(c2ccc(C(C)=O)cc2)C(=O)O1` [DUP-721], MIC 2.5 µg/mL (≈ 9.05 µM). Against it:
- CC(=O)NC[C@@H]1CCN(c2ccc(C(C)=O)cc2)C1 — higher, > 40 µg/mL
- CC(=O)NC[C@H]1C=C(c2ccc(C(C)=O)cc2)C(=O)O1 — the same, 2.5 µg/mL (≈ 9.15 µM)
- CC(=O)NC[C@@H]1CC(=O)N(c2ccc(C(C)=O)cc2)C1 — higher, > 40 µg/mL

Each molecule was assayed on Enterococcus faecium (assay: In vitro antibacterial activity against vancomycin resistant strain Streptococcus faecium 02D3IP1).
Format: functional

Point of comparison: `CC(=O)NC[C@H]1C=C(c2ccc(C(C)=O)cc2)C(=O)O1`, MIC 2.5 µg/mL (≈ 9.15 µM). Against it:
- CC(=O)NC[C@@H]1CCN(c2ccc(C(C)=O)cc2)C1 — higher, > 40 µg/mL
- CC(=O)NC[C@@H]1CC(=O)N(c2ccc(C(C)=O)cc2)C1 — higher, > 40 µg/mL
- CC(=O)NC[C@H]1CN(c2ccc(C(C)=O)cc2)C(=O)O1 [DUP-721] — lower, < 1.2 µg/mL

The molecules below were run on Enterococcus faecium (assay: In vitro antibacterial activity against sensitive strain Streptococcus faecium M78L).
Format: functional

Point of comparison: `CC(=O)NC[C@H]1CN(c2ccc(C(C)=O)cc2)C(=O)O1` [DUP-721], MIC 2.5 µg/mL (≈ 9.05 µM). Against it:
- CC(=O)NC[C@@H]1CCN(c2ccc(C(C)=O)cc2)C1 — higher, > 40 µg/mL
- CC(=O)NC[C@H]1C=C(c2ccc(C(C)=O)cc2)C(=O)O1 — 2-fold higher, 5 µg/mL (≈ 18.3 µM)
- CC(=O)NC[C@@H]1CC(=O)N(c2ccc(C(C)=O)cc2)C1 — higher, > 40 µg/mL

These molecules were tested on Streptococcus pyogenes (assay: In vitro antibacterial activity against sensitive strain Streptococcus pyogenes 77A).
Format: functional

Point of comparison: `CC(=O)NC[C@H]1C=C(c2ccc(C(C)=O)cc2)C(=O)O1`, MIC 2.5 µg/mL (≈ 9.15 µM). Against it:
- CC(=O)NC[C@@H]1CCN(c2ccc(C(C)=O)cc2)C1 — higher, > 40 µg/mL
- CC(=O)NC[C@@H]1CC(=O)N(c2ccc(C(C)=O)cc2)C1 — higher, > 40 µg/mL
- CC(=O)NC[C@H]1CN(c2ccc(C(C)=O)cc2)C(=O)O1 [DUP-721] — 4.2-fold lower, 0.6 µg/mL (≈ 2.17 µM)
